Assay results as given in patent publication US20230073007A1, “SWITCHING BINDER, PREPARATION METHOD THEREFOR, AND PHARMACEUTICAL COMPOSITION, ASSAY KIT, AND ANTIGEN AND ANTIBODY ASSAY METHOD, EACH USING SAME” (OPTOLANE TECHNOLOGIES INC., priority 2019, published 2023).

What was measured:
[1] = system: anti-HRP antibody; assay: SPR analysis of switching binder binding to immobilized antibody (FIG. 7B); details: 10 and 20 μM peptide
Source text: Referring to FIG. 7B, in an embodiment, a result of a surface plasmon resonance (SPR) analysis may be confirmed. Surface Plasmon Resonance (SPR) uses a phenomenon that when a material binds to the surface of a metal thin film such as gold, the refractive index of the metal surface changes. When the light is irradiated, the concentration of the material bound to the metal surface can be measured by examining the resonance angle at which the SPR phenomenon occurs among the reflected light.
Specifically, in order to confirm the SPR signal result, the gold surface was treated overnight with 1 mM mercaptoundecanoic acid (MUA) and surface-modified prior to immobilization of the antibody 10. Carbodiimide/N-Hydroxysuccinimide (EDC/NHS, 0.4 M/0.1 M) was mixed in a 1:1 ratio and treated for 10 minutes to activate functional groups. […] The SPR signal can be measured as an average value by repeating the routine of measuring the SPR signal for 3 minutes while the solution is stopped after flowing 1% Tween-20 washing solution for 1 minute three times.
However, the embodiment is not limited to the embodiment of the present disclosure and may include any method capable of measuring the binding strength of the switching binder 100. […] As a result of peptide treatment at a low concentration of 10 μM, shown in the graph on the left (B1), the SPR signal was calculated as the peptide of SEQ ID NO. […]

[2] = system: anti-HRP antibody, anti-hCG antibody, anti-CRP antibody, anti-HBsAg antibody; assay: One-step immunoassay on solid support, release of switching binder on target antigen binding (FIGS. 8A to 8D); design: species or system rabbit, mouse, goat; details: after treatment with target antigen (HRP, hCG, CRP, HBsAg); 10 or 20 μM switching binder; fluorescence
Method: With reference to FIG. 8A, anti-HRP antibody was treated and fixed overnight on a solid support at a concentration of 1 μg/ml, and the switching binder 100 of SEQ ID NOs. 1 to 4 were each treated at a concentration of 10 μM (100 μl/well) for 2 hours. At this time, after measuring the fluorescence of the bottom, the antigen HRP as an analyte for an IgG antibody of rabbit was treated at a concentration of 10 μg/ml for 1 hour. With reference to FIG. 8B, anti-HCG antibody was treated and fixed overnight on a solid support at a concentration of 1 μg/ml, and the switching binder 100 of SEQ ID NOs. 1 to 4 were each treated at a concentration of 20 μM (100 μl/well) for 2 hours. At this time, after measuring the fluorescence of the bottom, the antigen HCG as an analyte for an IgG antibody of a mouse was treated at a concentration of 100 μg/ml for 2 hours.
With reference to FIG. 8C, anti-CRP antibody was treated and fixed overnight on a solid support at a concentration of 1 μg/ml, and the switching binder 100 of SEQ ID NOs. 1 to 4 were each treated at a concentration of 20 μM (100 μl/well) for 2 hours. At this time, after measuring the fluorescence of the bottom (A), the antigen […] as an analyte for an IgG antibody of rabbit was treated at a concentration of 10 μg/ml for 1 hour. […] At this time, after measuring the fluorescence of the bottom (A), the antigen HBsAg as an analyte for an IgG antibody of a goat was treated at a concentration of 10 μg/ml for 1 hour.
Referring to FIGS. 8A to 8D, the switching binder 100 was tested using the switching binder of SEQ ID NOs. […] The labeling reaction may be a fluorescence reaction. […]
Referring to FIGS. 8A to 8D, it can be seen that the remaining amount (B) of the switching binder 120 bound to the framework region (FR) was reduced compared to the amount (A) of the switching binder 110 bound to the antibody 10 in all of the switching binder of SEQ ID NO. […] In addition, it can be seen that the amount (C) of the switching binder 130 separated from the framework region (FR) is measured. […]
This is because the amount (A) of the switching binder 110 bound to the antibody 10 is the intensity of fluorescence observed on the surface of the support 30, but the amount (C) of the switching binder 130 separated from the framework region (FR) is the intensity of fluorescence observed in the solution phase. […] According to an embodiment of the present disclosure, as described above, it is possible to quantify the target antigen 20 by the difference between the amount of the switching binder 110 bound to the antibody 10 measured in the pretreatment step (S100) and the amount of the switching binder 120 in the remaining amount bound to the framework region (FR) in the assay step (S300). […]

[3] = biological target: anti-HRP antibody / HRP; assay: Antigen-binding coefficient of the antibody in solution measured via isolated switching binder (FIGS. 10A to 10D); details: target antigen HRP, anti-HRP antibody not immobilized; calculated from amount of isolated switching binder; read-out: antigen-binding coefficient (Kd) of the antibody in solution, measured using the switching binder
Source text: The pretreatment step (S100″) may include providing the switching binder 100 to an antibody 10 to obtain a mixed solution containing a first conjugate (b1) of the antibody 10 and the switching binder 100, and the switching binder 100 not bound to the antibody 10 (S110); and removing the switching binder 100 not bound to the antibody 10 from the mixed solution (S120). For example, the mixed solution passes through a desalting column to remove the unbound switching binder passing through the desalting column […], and only the first conjugate (b1) passing through the desalting column later can be obtained. The above-described method is exemplary, and various known techniques for separating the first conjugate and the switching binder 100 may be referred to.
Then, as the step of providing an analyte, in the antigen processing step (S200″), the step of separating the first conjugate (b1) from the framework regions (FR, FR) by binding the target antigen 20 to the antibody 10 may be performed. […]
Then, the assay step (S300″) may further include the steps of separating the second conjugate (b2) of the antibody 10 to which the switching binder 130 separated from the antibody 10 and the target antigen 20 are bound (S310); and quantifying the separated switching binder 130 (S320). […] Thereafter, only the separated switching binder 130 may be selectively obtained and quantified through a labeling reaction. At this time, as the concentration of the target antigen 20 increases, the amount of the switching binder 130 separated from the second conjugate (b2) increases, thereby increasing the fluorescence amount of the solution.
In an embodiment, in the assay step (S300″), a test kit that can measure the amount of the switching binder 130 separated according to the increase in the concentration of the target antigen 20 and measure the binding strength of the target antigen 20 to the antibody 10 can be provided. In order to measure the binding strength, the antigen-binding coefficient (Kd) of the antibody 10 may be measured. […]

[4] = system: switching binder of SEQ ID NO. 1 (H1) / switching binder of SEQ ID NO. 4 (L2); assay: FRET test of mutual binding between switching binders H1 and L2 (FIG. 6E)
Source text: 1 (H1) and the switching binder of SEQ ID NO. 4 […]. Through this, it can be confirmed that the switching binder of SEQ ID NO. 1 (H1) can interact with the LBR region of the light chain (VL), and the switching binder of SEQ ID NO. 4 (L2) can interact with the HBR region of the heavy chain (VH). Through this property, the switching binder 100 binds to the framework region (FR), and thus the same effect as the interaction between the framework regions (FR) can be obtained.

[5] = system: switching binder of SEQ ID NO. 2 (H2) / switching binder of SEQ ID NO. 3 (L1); assay: FRET test of mutual binding between switching binders H2 and L1 (FIG. 5E)
Source text: 2 (H2) and the switching binder of SEQ ID NO. 3 (L1). Accordingly, it can be confirmed that the switching binder of SEQ ID NO. 2 […] can self-bind and interact with the LAR region of the light chain (VL), and the switching binder of SEQ ID NO. 3 (L1) can self-bind and interact with the HAR region of the heavy chain (VH). Through this, the switching binder 100 having an amino acid sequence extracted from the heavy chain (VH) can bind to the antigen-binding portion 15 including the framework region (FR) of the light chain (VL), and the switching binder 100 having an amino acid sequence extracted from the light chain (VL) can bind to the antigen-binding portion 15 including the framework region (FR) of the heavy chain (VH).

[6] = system: anti-influenza B antibody; assay: Bead-based antibody binding one-step immunoassay (FIGS. 9A and 9B); details: influenza B versus CRP at 10 ng/mL; separated and remaining switching binder quantified

Row | Sequence | binding to the antibody by SPR [1] | remaining amount (B) of switching binder bound to framework region compared to amount (A) bound to antibody [2] | Kd [3] [nM] | FRET mutual binding between H1 and L2 [4] | FRET mutual binding between H2 and L1 [5] | bead-based one-step immunoassay feasibility [6]
1 | VYYCFQGSHVPFTK [L2, V-Y-Y-C-F-Q-G-S-H-V-P-F-T-K] | binds the most | reduced | 1200 | mutual binding | – | –
2 | VYYCAREPTGTGIYFDVWGK [H2, VYYCAREPTGTGIYFDVWGK] | – | reduced | 2900 | – | mutual binding | –
3 | SYWIHWVKQRPGQGLEWIGE [H1, SYWIHWVKQRPGQGLEWIGE] | – | reduced | – | mutual binding | – | possible
4 | TYLEWYPQKPGQSPKLLIYK [L1, TYLEWYPQKPGQSPKLLIYK] | – | reduced | 890 | – | mutual binding | possible
